This passage reports melting point results from a melting point compilation (Tetko et al.; mined from patent text by program, amines drawn as free bases though some values may be those of a salt).

Bounds are passed on as bounds.

`CC(=NOCc1ccc2nonc2c1)c1ccc(O)c(F)c1` showed a melting point of 125 to 126 °C.
`N=C(N)Cc1ccccc1-n1cnc2cnc3ccc(-c4ccccc4)cc3c21` displayed a melting point of 261 to 263 °C.
As to `[N-]=[N+]=N[C@@H]1CN2C(=O)N(c3cc(Cl)cc(Cl)c3)C(=O)[C@]2(Cc2ccc(Br)cc2)C1`, the melting point is 58.9 °C.
Turning to `CC(CC1(c2ccccc2)C=CCC=C1)OS(C)(=O)=O` (centres undefined), the melting point was 51 to 53 °C.
As for `CCOC(=O)C(N)c1c[nH]c2c(CC)cccc12` (centres undefined), the melting point was 120 to 122 °C.
For `CCOC(=O)c1sc(C)nc1OC(=S)N(C)C` the value was 87 to 90 °C; for `CSc1ccc(-c2nc(SC)c(C#N)c(=O)n2-c2ccc(Cl)cc2)cc1`, 203 to 205 °C.
On to `CCCCCOc1cc(C(=O)O)c2c(c1)C(=O)CC2`, for which the melting point fell in the range of 165 to 166 °C.
For `Cc1ccc(N(c2ccccc2)c2ccc(-c3ccc(-c4ccc(N(c5ccccc5)c5ccc(C)cc5)cc4)cc3)cc2)cc1` the value was 167 to 168 °C; for `O=C1OC(C2CCCCC2)(C2CCCCC2)C2CNCCN12` (centres undefined), 151 to 152 °C; for `C[C@@H]1N(C(=O)OC(C)(C)C)CC[C@]1(C)O`, 109 to 112 °C.
Turning to `C[C@H](COc1ccc(C=C2SC(=S)N(CC(=O)O)C2=O)cc1O[C@@H](c1ccccc1)C(F)(F)F)c1ccccc1`, the melting point lay within 73 to 80 °C.
In the case of `Cc1cc(C=O)cc(Oc2nc(Cl)nc(Cl)c2C(C)C)c1`, the melting point was 227 to 229 °C.
For `O=C(NCc1c[nH]c(=S)n1[C@H]1CCc2c(F)cc(F)cc2C1)c1ccco1` the value was 227 to 231 °C.
For `COc1cc(-n2nc(C(F)(F)F)cc2-c2ccc(S(C)(=O)=O)cc2)ccc1F` the value was 159 to 160 °C.
For `O=C(O)Cc1cnn(-c2ccccc2)c1-c1ccccc1`, the melting point lay in the range of 107 to 110 °C.
For `C=C(C)C(=O)OCCNC(=O)Oc1cccc(OC(=O)c2ccccc2)c1` the value was 57.5 to 61.5 °C; for `Cc1ccc(N)c(C(=O)NCCC(C)n2ccnc2)c1` (centres undefined), 128 to 130 °C; for `COc1ccc(Cn2c(=O)c3nccnc3n(CCCCBr)c2=O)cc1`, 117 to 119 °C.
For `O=C(OCc1ccccc1)N1CCC(Nc2nc3cccnc3n2Cc2ccc(F)cc2)CC1` the value was 130 °C; for `COC(=O)c1sccc1-c1ccccc1`, 63 to 66 °C.
For `O=[N+]([O-])c1ccc(C(O)C(COc2ccccc2)N2CCC(Cc3ccccc3)CC2)cc1` (centres undefined) the value was 159 to 162 °C; for `CCc1c(OC)cc(C2CN(C)CC/C2=C\C(=O)OC)cc1OC` (centres undefined), 110 to 112 °C.
`Cc1nccnc1NCCN1CCC(NC(=O)c2cc(Cl)c(N)c3c2OC(C)(C)C3)CC1` returned a melting point of 163 °C.
For `O=C1c2cccnc2N(c2ccccc2)C(=O)C12CCCCO2` (centres undefined) the value was 213 to 215 °C.
For `CC(C)(C)OC(=O)NCC(O)c1ccco1` (centres undefined) the value was 89 to 90 °C.
For `CCCCCCCC/C=C\CCCCCCCCOc1cccc(N(CC(=O)OC)CC(=O)OC)c1` the value was 36 to 37 °C; for `CN(C)C1(c2ccccn2)CCC(NCCc2c[nH]c3ccccc23)CC1` (centres undefined), 150 to 152 °C; for `N#CSCSc1sccc1[N+](=O)[O-]`, 51 to 53 °C.
`O=C(C=Cc1ccccc1)C(Cc1ccccc1)(Cc1ccccc1)C(=O)C=Cc1ccccc1` registered a melting point of 182 to 183 °C.
For `CC(C)NC(=O)c1nc(-c2ccccc2)c(-c2ccc(=O)[nH]n2)s1` the value was above 250 °C; for `O=C1Nc2ccc([N+](=O)[O-])cc2/C1=C(/Nc1ccc(CN2CCCC2)cc1)c1ccccc1`, 45 to 50 °C; for `CC(=O)OC(c1cccnc1)c1c(O)c(=O)ccn1C` (centres undefined), 153 to 154 °C.
In turn, `CC(C)(CF)C(O)(COc1ccc(F)cc1)Cn1cncn1` (centres undefined) showed a melting point of 97 to 99 °C.
For `CCN1CCC(C(=O)NO)(S(=O)(=O)c2ccc(OC)cc2)CC1` the value was 85 °C; for `O=C1c2cc(F)ccc2OC[C@H]2CCCN12`, 80 to 82 °C.
For `COC(=O)Cc1ccc(Sc2ccccc2C(=O)N(C)C)c([N+](=O)[O-])c1` the value was 124 to 125 °C; for `CCOC(=O)C1=C(C)NC(C#N)=C(C(=O)OCC)C1c1cc([N+](=O)[O-])ccc1Cl` (centres undefined), 204 to 206 °C; for `O=C1CC(c2ccccc2)C(=S)N1c1ccc(Cl)cc1` (centres undefined), 153 to 155 °C.
For `Cc1c(Br)cccc1N1Cc2cc(C(C)(C)C)sc2C1=O` the value was 185 to 186 °C.
Consider `CCCNC(=O)C1(CCC)c2ccccc2Sc2ccccc21`, for which the melting point lay in the range of 132 to 133 °C.
For `O=C1CC(CCCl)c2ccccc2N1` (centres undefined) the value was 112 to 113 °C.
For `CC(C)[C@H](NC(=O)OCc1ccccc1)C(=O)N[C@@H](Cc1ccccc1)C(=O)C[C@@H]1CCCC[C@H]1C(=O)NC(C)(C)C` the value was 186 to 188 °C; for `CN(CCCNc1ncc(Cc2ccc(Cl)c(Cl)c2)c(=O)[nH]1)c1ccccn1`, 86 to 92 °C.
On to `CN(Cc1ccccc1)C(N)=NC#N`, for which the melting point was in the range of 102 to 105 °C.
For `CCCCCCCCCCCCCCCC(=O)OCC(COC(=O)CCCCCCCCCCCCCCC)OC(=O)C1C=CC=CC1(O)C(C)=O` (centres undefined) the value was 43 to 44 °C; for `CC(C)n1cc(C(=O)O)c2ccc(F)cc21`, 177 to 180 °C; for `CC(Cl)(Cl)C(=O)NC(=O)C(N)=O`, 110 °C.
In the case of `CC1(C)CC(=O)c2c(C(=O)Nc3ccsc3)c[nH]c2C1`, the melting point lay in the range of 217 to 218 °C.
For `N#Cc1ccc(C(=O)C(Br)C(Br)c2ccc(C#N)cc2)cc1` (centres undefined) the value was 192 to 193 °C.
For `CC(C)(C)OC(=O)NCC(=O)Nc1ccc2c(c1)-c1c(c(C(=O)C(C#N)C(=O)Nc3ccccc3)nn1-c1ccccc1)CS2` (centres undefined) the value was 190 to 200 °C; for `COC(=O)c1cc2c(C)ccc(C)c2n1OC`, 90 to 91 °C.
For `COC1(c2cccc3[nH]ccc23)CCCNC1` (centres undefined) the value was 212 °C; for `CCOC(=O)c1c(CCl)nc2sc3c(c2c1-c1ccc(OC)c(OC)c1)CN(C(=O)OCc1ccccc1)CC3`, 125 to 126 °C.
`CCCc1nn(C)c2c(=O)[nH]c(-c3cc(NS(C)(=O)=O)ccc3OCC)nc12`: the melting point lay in the range of 205 to 206 °C.
In the case of `CN(C)c1ncc(-c2nc3cccc(CO)c3o2)cn1`, the melting point lay within 212 to 215 °C.
For `CCCCc1nc2c(c(=O)[nH]1)CN(C(C)=O)CC2` the value was 106 to 113 °C; for `COC(=O)c1ccc(-c2nc(-c3cccc(Cl)c3)cs2)cc1`, 150 to 151 °C; for `CC1(C)CCC(C)(C)c2cc3[nH]c(SCc4ccccn4)nc3cc21`, 199 to 200 °C.
For the molecule `Cc1cccc2c1C(=O)N(C1CCC(=O)NC1=O)C2=O` (centres undefined), the melting point lay within 290 to 292 °C.
Take `CCCCCCC(=O)c1cn(CCCC(=O)O)c2ccccc12`: the melting point is 58 to 60 °C.
Take `Cn1cnc(COc2nn3c(-c4ccccc4)nnc3cc2-c2cccs2)n1`: the melting point was 237 to 239 °C.
For `Cn1nc(Cl)c(C2=NOCCO2)c1S(N)(=O)=O` the value was 158 °C; for `COC(=O)CCCc1cc2nc(Cl)ccc2n1S(=O)(=O)c1cccc(C(F)(F)F)c1`, 97 °C; for `CCCn1ncc2c(=O)[nH]c(-c3cc(C(=O)CN4CCOCC4)ccc3OCC)nc21`, 160 to 162 °C.
For `CCOC(=O)c1cc2c(nc1C)CCCC2` the value was 105 to 106 °C; for `FC(F)(F)C(c1ccc(Cl)cc1Cl)c1ccc(Cl)cc1Cl`, 84 to 86 °C.
For `Nc1cc(Sc2ccc(Cl)cc2)nc(-c2ccccc2)n1` the value was 118 to 121 °C; for `CCCCOc1ncc(I)cc1C(N)=S`, 140 to 148 °C; for `CCOCc1nc2c(N)nc3cccnc3c2n1Cc1ccccc1`, 173 to 174 °C.
`COC(=O)Cn1c(C(=O)O)cc2cc(C)cc(C)c21` displayed a melting point of 221 to 223 °C.
For `CCCCCP(=O)(CC(=O)OC)OCc1ccc(-c2ccccc2C(=O)O)cc1` (centres undefined) the value was 101 to 102 °C.
For `CC1CC(=O)c2c(nc3c(c2N)c2ccccc2n3C)C1` (centres undefined) the value was 216 to 217 °C.
`CC1(C)CC(=C(c2ccc(O)cc2)c2ccc(S(C)(=O)=O)cc2)CC(C)(C)C1` displayed a melting point of 149 to 150 °C.
For `Cc1noc(C)c1C(=O)Nc1ccc(-n2nccc2C)cc1` the value was 151 to 152 °C; for `c1ccc(CCN2CCc3[nH]c4ccc5scc(-c6ccccc6)c5c4c3C2)cc1`, 220 to 221 °C; for `CCC([O-])=C(C(=O)OC)N1C(=O)CC1[N+](CC)(CC)CC` (centres undefined), 109 to 110 °C.
Take `N=C(Nc1ccc2[nH]cc(C3CCN(C(=N)c4cccs4)CC3)c2c1)c1cccs1`: the melting point was 115 to 117 °C.
Consider `CCCc1nc(C=O)c(C(=O)OCC)n1Cc1cc2c(cc1Cl)OCO2`, for which the melting point came out at 105 °C.
Turning to `Cn1c([N+](=O)[O-])cnc1C1=NOC2OCCCC12` (centres undefined), the melting point lay within 140 to 142 °C.
For `COc1ccc(C(=O)N2C(C)Cc3ccccc3C2CNC(=O)c2cc(OC)c(OC)c(OC)c2)cc1` (centres undefined) the value was 213 to 215 °C; for `CCOC(=O)c1cc2c3n(ccc-2n1)CC(CO)=N3`, 227 to 229 °C; for `CCC(C)C(CO)NC(=O)CC(O)C(CC(C)C)NC(=O)C(Cc1cccs1)NC(=O)C(Cc1cccc2ccccc12)NC(=O)OCc1ccccc1` (mixture of isomers), 160 to 162 °C.
For `Cn1ncc2c1-c1c(Sc3ccccn3)sc(C(N)=O)c1CC2` the value was 234 to 236 °C.
Regarding `CCCCC1CCCC2=C1C(=O)c1cc(C)c(C)cc1C2=O` (centres undefined), the melting point lay within 88 to 90 °C.
Turning to `COc1ccc(Oc2c(C)cc(CC#N)cc2C)cc1C(C)C`, the melting point lay in the range of 56 to 58 °C.
Consider `COc1ccc(C(=O)C=Cc2ccc([N+](=O)[O-])cc2)cc1`, for which the melting point was in the range of 171 to 173 °C.
For `CN1c2ccccc2N(C(=O)c2ccccc2)C(=O)c2cccnc21` the value was 181 to 183 °C; for `CN(C)CCC1=Cc2ccc(OCc3ccc(-c4ccccc4)cc3)cc2CC1`, 123 to 126 °C.
